Test results published in patent US4918054A, “Antibiotics called `chloropolysporins B and C`, a process for their preparation, and their therapeutic and veterinary use” (Sankyo Company Limited, priority 1985, dated 1990).
≈ marks a conversion by molar mass, not a printed value.

Legend:
[1] = test system: Peptostreptococcus saccharoliticus; experiment: MIC against anaerobic bacteria, GAM agar medium; format: cell-based
[2] = test system: Staphylococcus epidermidis SANK 71575; experiment: MIC, two-fold agar dilution method, Mueller-Hinton agar; format: cell-based
[3] = test system: Serratia marcescens SANK 73060; experiment: as above; format: cell-based
[4] = test system: Staphylococcus aureus SANK 70175; experiment: as above; format: cell-based
Solubility in solvents = format: physicochemical
[5] = test system: Pseudomonas aeruginosa NCTC 10490; experiment: MIC, two-fold agar dilution method, Mueller-Hinton agar; format: cell-based
[6] = test system: Peptostreptococcus parvulus; experiment: MIC against anaerobic bacteria, GAM agar medium; format: cell-based
[7] = test system: Proteus mirabilis SANK 70461; experiment: MIC, two-fold agar dilution method, Mueller-Hinton agar; format: cell-based
[8] = test system: Staphylococcus aureus FDA 209P JC-1; experiment: as above; format: cell-based
[9] = test system: Mycobacterium smegmatis ATCC 607; experiment: as above; format: cell-based
Eubacterium cylindroides = experiment: MIC against anaerobic bacteria, GAM agar medium; format: cell-based
Bacteroides fragilis = experiment: MIC against anaerobic bacteria, GAM agar medium; format: cell-based
[10] = test system: Bacillus subtilis PCI 219; experiment: MIC, two-fold agar dilution method, Mueller-Hinton agar; format: cell-based
Propionibacterium acnes = experiment: MIC against anaerobic bacteria, GAM agar medium; format: cell-based
[11] = test system: Escherichia coli NIHJ JC-2; experiment: MIC, two-fold agar dilution method, Mueller-Hinton agar; format: cell-based
Clostridium perfringens = format: cell-based; conditions: anaerobic, GAM agar
Clostridium symbiosum = experiment: MIC against anaerobic bacteria, GAM agar medium; format: cell-based
Clostridium difficile = experiment: MIC against anaerobic bacteria, GAM agar medium; format: cell-based
Protocol: The minimal inhibitory concentrations (MIC) of chloropolysporins B and C against various gram-positive and gram-negative bacteria were determined by the two-fold agar dilution method, using a Mueller-Hinton agar medium (produced by Difco); the MIC against anaerobic bacteria was determined using a GAM agar medium (produced by Nissui).

[12] = test system: Klebsiella pneumoniae PCI 602; experiment: MIC, two-fold agar dilution method, Mueller-Hinton agar; format: cell-based
[13] = test system: Enterococcus faecalis SANK 71778; experiment: as above; format: cell-based
[14] = test system: Staphylococcus aureus Smith; experiment: as above; format: cell-based
[15] = test system: Fusobacterium necrophorum; experiment: MIC against anaerobic bacteria, GAM agar medium; format: cell-based
Clostridium ramosum = experiment: MIC against anaerobic bacteria, GAM agar medium; format: cell-based

Structure (SMILES): CNC(C(=O)NC1C(=O)NC(c2ccc(O)c(Cl)c2)C(=O)NC2C(=O)NC3C(=O)NC(C(=O)NC(C(=O)O)c4cc(O)cc(O)c4-c4cc3ccc4O)C(OC3CC(N)C(O)C(C)O3)c3ccc(c(Cl)c3)Oc3cc2cc(c3OC2OC(CO)C(O)C(O)C2O)Oc2ccc(cc2Cl)C1OC1OC(CO)C(O)C(O)C1O)c1ccc(OC2OC(C)C(O)C(O)C2O)cc1 (stereo not shown) [Chloropolysporin B, chloropolysporin B]
- MIC [1]: 6.25 µg/mL (≈ 3.38 µM)
- MIC [2]: 3.13 µg/mL (≈ 1.69 µM)
- MIC [3]: > 100 µg/mL
- MIC [4]: 3.13 µg/mL (≈ 1.69 µM)
- solubility in acetone (Solubility in solvents; as its sulfate): sparingly soluble
- solubility in benzene (Solubility in solvents; as its sulfate): insoluble
- solubility in chloroform (Solubility in solvents; as its sulfate): insoluble
- solubility in ethyl acetate (Solubility in solvents; as its sulfate): insoluble
- solubility in methanol (Solubility in solvents; as its sulfate): soluble
- solubility in water (Solubility in solvents; as its sulfate): soluble
- solubility in water (Solubility in solvents; free bases): insoluble in water
- MIC [5]: > 100 µg/mL
- MIC [6]: 0.78 µg/mL (≈ 0.422 µM)
- MIC [7]: > 100 µg/mL
- MIC [8]: 1.56 µg/mL (≈ 0.844 µM)
- MIC [9]: 25.0 µg/mL (≈ 13.5 µM)
- MIC (Eubacterium cylindroides): 6.25 µg/mL (≈ 3.38 µM)
- MIC (Bacteroides fragilis): > 100 µg/mL
- MIC [10]: 0.78 µg/mL (≈ 0.422 µM)
- MIC (Propionibacterium acnes): 0.78 µg/mL (≈ 0.422 µM)
- MIC [11]: > 100 µg/mL
- MIC (Clostridium perfringens): 0.20 µg/mL (≈ 0.108 µM)
- MIC (Clostridium symbiosum): 1.56 µg/mL (≈ 0.844 µM)
- MIC (Clostridium difficile): 0.78 µg/mL (≈ 0.422 µM)
- MIC [12]: > 100 µg/mL
- MIC [13]: 1.56 µg/mL (≈ 0.844 µM)
- MIC [14]: 12.5 µg/mL (≈ 6.76 µM)
- MIC [15]: > 100 µg/mL
- MIC (Clostridium ramosum): 1.56 µg/mL (≈ 0.844 µM)

Structure (SMILES): CNC(C(=O)NC1C(=O)NC(c2ccc(O)c(Cl)c2)C(=O)NC2C(=O)NC3C(=O)NC(C(=O)NC(C(=O)O)c4cc(O)cc(O)c4-c4cc3ccc4O)C(OC3CC(N)C(O)C(C)O3)c3ccc(c(Cl)c3)Oc3cc2cc(c3OC2OC(CO)C(O)C(O)C2O)Oc2ccc(cc2Cl)C1OC1OC(CO)C(O)C(O)C1O)c1ccc(O)cc1 (stereo not shown) [Chloropolysporin C, chloropolysporin C]
- MIC [1]: 3.13 µg/mL (≈ 1.84 µM)
- MIC [2]: 3.13 µg/mL (≈ 1.84 µM)
- MIC [3]: > 100 µg/mL
- MIC [4]: 1.56 µg/mL (≈ 0.916 µM)
- solubility in acetone (Solubility in solvents; as its sulfate): sparingly soluble
- solubility in benzene (Solubility in solvents; as its sulfate): insoluble
- solubility in chloroform (Solubility in solvents; as its sulfate): insoluble
- solubility in ethyl acetate (Solubility in solvents; as its sulfate): insoluble
- solubility in methanol (Solubility in solvents; as its sulfate): soluble
- solubility in water (Solubility in solvents; as its sulfate): soluble
- solubility in water (Solubility in solvents; free bases): insoluble in water
- MIC [5]: > 100 µg/mL
- MIC [6]: 0.39 µg/mL (≈ 0.229 µM)
- MIC [7]: > 100 µg/mL
- MIC [8]: 1.56 µg/mL (≈ 0.916 µM)
- MIC [9]: 12.5 µg/mL (≈ 7.34 µM)
- MIC (Eubacterium cylindroides): 3.13 µg/mL (≈ 1.84 µM)
- MIC (Bacteroides fragilis): > 100 µg/mL
- MIC [10]: 0.78 µg/mL (≈ 0.458 µM)
- MIC (Propionibacterium acnes): 0.39 µg/mL (≈ 0.229 µM)
- MIC [11]: > 100 µg/mL
- MIC (Clostridium perfringens): 0.10 µg/mL (≈ 0.0587 µM)
- MIC (Clostridium symbiosum): 0.39 µg/mL (≈ 0.229 µM)
- MIC (Clostridium difficile): 0.39 µg/mL (≈ 0.229 µM)
- MIC [12]: > 100 µg/mL
- MIC [13]: 1.56 µg/mL (≈ 0.916 µM)
- MIC [14]: 6.25 µg/mL (≈ 3.67 µM)
- MIC [15]: > 100 µg/mL
- MIC (Clostridium ramosum): 1.56 µg/mL (≈ 0.916 µM)
